{"source": "ChEMBL document CHEMBL3046358", "about": "“Multiple Pro-197 substitutions in the acetolactate synthase of rigid ryegrass (Lolium rigidum) and their impact on chlorsulfuron activity and plant growth” (Crop Prot, 2012)", "key": {"[1]": {"system": "Lolium rigidum", "assay": "Herbicidal activity against Lolium rigidum accession A03 assessed as emergence rate applied at 1 times pre-emergence recommended rate relative to untreated control", "assay_type": "functional"}, "[2]": {"system": "Lolium rigidum", "assay": "Herbicidal activity against Lolium rigidum accession A08 assessed as fresh weight reduction applied at 1 times pre-emergence recommended rate applied in pots where terbufos had been incorporated into the soil relative to untreated control", "assay_type": "functional", "set-up": "scale not given: the % may be the effect or the level left"}, "[3]": {"target": "T1, Acetolactate synthase (Lolium rigidum, UniProt A7XBP7)", "assay": "Inhibition of acetolactate synthase Ala-197/Ala-197 mutant in Lolium rigidum accession A16 leaves extracts by acetolactate production assay", "details": "read-out: I50"}, "[4]": {"system": "Lolium rigidum", "assay": "Herbicidal activity against Lolium rigidum accession A06 assessed as emergence rate applied at 1 times pre-emergence recommended rate applied in pots where terbufos had been incorporated into the soil relative to untreated control", "assay_type": "functional"}, "[5]": {"system": "Lolium rigidum", "assay": "Herbicidal activity against Lolium rigidum accession A02 assessed as fresh weight reduction applied at 1 times pre-emergence recommended rate relative to untreated control", "assay_type": "functional", "set-up": "scale not given: the % may be the effect or the level left"}, "[6]": {"system": "Lolium rigidum", "assay": "Herbicidal activity against Lolium rigidum accession A09 assessed as emergence rate applied at 1 times pre-emergence recommended rate applied in pots where terbufos had been incorporated into the soil relative to untreated control", "assay_type": "functional"}, "[7]": {"target": "T2, Acetolactate synthase (Lolium rigidum) (UniProt A7XBP7)", "T2 sequence (whole entry)": "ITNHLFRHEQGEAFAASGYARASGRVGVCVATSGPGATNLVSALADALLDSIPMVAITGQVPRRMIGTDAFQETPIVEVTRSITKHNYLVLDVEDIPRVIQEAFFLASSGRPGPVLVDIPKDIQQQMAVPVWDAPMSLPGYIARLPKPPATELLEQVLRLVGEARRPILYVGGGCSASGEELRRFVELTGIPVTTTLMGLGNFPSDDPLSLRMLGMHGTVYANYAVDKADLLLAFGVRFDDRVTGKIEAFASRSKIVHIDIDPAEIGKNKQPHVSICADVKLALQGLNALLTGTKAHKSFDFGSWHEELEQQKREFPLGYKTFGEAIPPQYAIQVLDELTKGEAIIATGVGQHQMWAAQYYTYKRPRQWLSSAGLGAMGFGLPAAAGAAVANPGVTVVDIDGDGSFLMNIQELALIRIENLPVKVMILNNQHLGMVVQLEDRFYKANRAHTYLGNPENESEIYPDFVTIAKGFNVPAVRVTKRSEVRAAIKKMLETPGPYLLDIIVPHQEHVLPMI", "assay": "Resistance index, ratio of I50 for acetolactate synthase […]/Leu-197 mutant in Lolium rigidum accession A18 leaves extracts to I50 for acetolactate synthase in Lolium rigidum accession A01 leaves extracts"}, "[8]": {"target": "T1, Acetolactate synthase", "assay": "Inhibition of acetolactate synthase Ala-197/Ala-197 mutant in Lolium rigidum accession A20 leaves extracts by acetolactate production assay", "details": "read-out: I50"}, "[9]": {"system": "Lolium rigidum", "assay": "Herbicidal activity against Lolium rigidum accession A12 assessed as fresh weight reduction applied at 4 times pre-emergence recommended rate relative to untreated control", "assay_type": "functional", "set-up": "scale not given: the % may be the effect or the level left"}, "[10]": {"system": "Lolium rigidum", "assay": "Herbicidal activity against Lolium rigidum accession A03 assessed as fresh weight reduction applied at 4 times pre-emergence recommended rate relative to untreated control", "assay_type": "functional", "set-up": "scale not given: the % may be the effect or the level left"}, "[11]": {"system": "Lolium rigidum", "assay": "Herbicidal activity against Lolium rigidum accession A02 assessed as fresh weight reduction applied at 4 times pre-emergence recommended rate relative to untreated control", "assay_type": "functional", "set-up": "scale not given: the % may be the effect or the level left"}, "[12]": {"target": "T2, Acetolactate synthase (Lolium rigidum)", "assay": "Resistance index, ratio of I50 for acetolactate synthase Pro-197/Arg-197 or Pro-197/Ser-197 or Pro/Val or Ala/Leu mutant in Lolium rigidum accession A17 leaves extracts to I50 for acetolactate synthase in Lolium rigidum accession A01 leaves extracts"}, "[13]": {"system": "Lolium rigidum", "assay": "Herbicidal activity against Lolium rigidum accession A13 assessed as emergence rate applied at 1 times pre-emergence recommended rate relative to untreated control", "assay_type": "functional"}, "[14]": {"system": "Lolium rigidum", "assay": "Herbicidal activity against Lolium rigidum accession A05 assessed as emergence rate applied at 4 times pre-emergence recommended rate relative to untreated control", "assay_type": "functional"}, "[15]": {"system": "Lolium rigidum", "assay": "Herbicidal activity against Lolium rigidum accession A13 assessed as fresh weight reduction applied at 1 times pre-emergence recommended rate relative to untreated control", "assay_type": "functional", "set-up": "scale not given: the % may be the effect or the level left"}, "[16]": {"system": "Lolium rigidum", "assay": "Herbicidal activity against Lolium rigidum accession A15 assessed as emergence rate applied at 1 times pre-emergence recommended rate relative to untreated control", "assay_type": "functional"}, "[17]": {"system": "Lolium rigidum", "assay": "Herbicidal activity against Lolium rigidum accession A04 assessed as fresh weight reduction applied at 1 times pre-emergence recommended rate relative to untreated control", "assay_type": "functional", "set-up": "scale not given: the % may be the effect or the level left"}, "[18]": {"target": "T2, Acetolactate synthase (Lolium rigidum)", "assay": "Resistance index, ratio of I50 for acetolactate synthase Pro-197/Pro-197 mutant in Lolium rigidum accession A10 leaves extracts to I50 for acetolactate synthase in Lolium rigidum accession A01 leaves extracts"}, "[19]": {"system": "Lolium rigidum", "assay": "Herbicidal activity against Lolium rigidum accession A07 assessed as fresh weight reduction applied at 1 times pre-emergence recommended rate relative to untreated control", "assay_type": "functional", "set-up": "scale not given: the % may be the effect or the level left"}, "[20]": {"system": "Lolium rigidum", "assay": "Herbicidal activity against Lolium rigidum accession A13 assessed as fresh weight reduction applied at 4 times pre-emergence recommended rate relative to untreated control", "assay_type": "functional", "set-up": "scale not given: the % may be the effect or the level left"}, "[21]": {"system": "Lolium rigidum", "assay": "Herbicidal activity against Lolium rigidum accession A13 assessed as emergence rate applied at 1 times pre-emergence recommended rate applied in pots where terbufos had been incorporated into the soil relative to untreated control", "assay_type": "functional"}, "[22]": {"system": "Lolium rigidum", "assay": "Herbicidal activity against Lolium rigidum accession A14 assessed as emergence rate applied at 1 times pre-emergence recommended rate applied in pots where terbufos had been incorporated into the soil relative to untreated control", "assay_type": "functional"}, "[23]": {"system": "Lolium rigidum", "assay": "Herbicidal activity against Lolium rigidum accession A10 assessed as emergence rate applied at 4 times pre-emergence recommended rate relative to untreated control", "assay_type": "functional"}, "[24]": {"target": "T1, Acetolactate synthase", "assay": "Inhibition of acetolactate synthase Ser-197/Ser-197 mutant in Lolium rigidum accession A21 leaves extracts by acetolactate production assay", "details": "read-out: I50"}, "[25]": {"target": "T1, Acetolactate synthase", "assay": "Inhibition of acetolactate synthase Leu-197/Leu-197 mutant in Lolium rigidum accession A08 leaves extracts by acetolactate production assay", "details": "read-out: I50"}, "[26]": {"system": "Lolium rigidum", "assay": "Herbicidal activity against Lolium rigidum accession A09 assessed as fresh weight reduction applied at 4 times pre-emergence recommended rate relative to untreated control", "assay_type": "functional", "set-up": "scale not given: the % may be the effect or the level left"}, "[27]": {"system": "Lolium rigidum", "assay": "Herbicidal activity against Lolium rigidum accession A02 assessed as fresh weight reduction applied at 1 times pre-emergence recommended rate applied in pots where terbufos had been incorporated into the soil relative to untreated control", "assay_type": "functional", "set-up": "scale not given: the % may be the effect or the level left"}, "[28]": {"system": "Lolium rigidum", "assay": "Herbicidal activity against Lolium rigidum accession A01 assessed as emergence rate applied at 4 times pre-emergence recommended rate relative to untreated control", "assay_type": "functional"}, "[29]": {"system": "Lolium rigidum", "assay": "Herbicidal activity against Lolium rigidum accession A11 assessed as fresh weight reduction applied at 4 times pre-emergence recommended rate relative to untreated control", "assay_type": "functional", "set-up": "scale not given: the % may be the effect or the level left"}, "[30]": {"system": "Lolium rigidum", "assay": "Herbicidal activity against Lolium rigidum accession A14 assessed as emergence rate applied at 1 times pre-emergence recommended rate relative to untreated control", "assay_type": "functional"}, "[31]": {"system": "Lolium rigidum", "assay": "Herbicidal activity against Lolium rigidum accession A14 assessed as emergence rate applied at 4 times pre-emergence recommended rate relative to untreated control", "assay_type": "functional"}, "[32]": {"target": "T2, Acetolactate synthase (Lolium rigidum)", "assay": "Resistance index, ratio of I50 for acetolactate synthase Leu-197/Leu-197 mutant in Lolium rigidum accession A08 leaves extracts to I50 for acetolactate synthase in Lolium rigidum accession A01 leaves extracts"}, "[33]": {"system": "Lolium rigidum", "assay": "Herbicidal activity against Lolium rigidum accession A15 assessed as fresh weight reduction applied at 1 times pre-emergence recommended rate applied in pots where terbufos had been incorporated into the soil relative to untreated control", "assay_type": "functional", "set-up": "scale not given: the % may be the effect or the level left"}, "[34]": {"system": "Lolium rigidum", "assay": "Herbicidal activity against Lolium rigidum accession A14 assessed as fresh weight reduction applied at 1 times pre-emergence recommended rate applied in pots where terbufos had been incorporated into the soil relative to untreated control", "assay_type": "functional", "set-up": "scale not given: the % may be the effect or the level left"}}}
{"smiles": "COc1nc(C)nc(NC(=O)NS(=O)(=O)c2ccccc2Cl)n1", "note": "[CHLORSULFURON]", "values": [{"measurement": "Activity", "setting": "[1]", "result": 1, "unit": "%"}, {"measurement": "Activity", "setting": "[2]", "result": 5, "unit": "%"}, {"measurement": "IC50", "setting": "[3]", "result": 7.71, "unit": "µM"}, {"measurement": "Activity", "setting": "[4]", "result": 92, "unit": "%"}, {"measurement": "Activity", "setting": "[5]", "result": 96, "unit": "%"}, {"measurement": "Activity", "setting": "[6]", "result": 3, "unit": "%"}, {"measurement": "Ratio", "setting": "[7]", "result": 54}, {"measurement": "IC50", "setting": "[8]", "result": 1.09, "unit": "µM"}, {"measurement": "Activity", "setting": "[9]", "result": 99, "unit": "%"}, {"measurement": "Activity", "setting": "[10]", "result": 91, "unit": "%"}, {"measurement": "Activity", "setting": "[11]", "result": 97, "unit": "%"}, {"measurement": "Ratio", "setting": "[12]", "result": 29}, {"measurement": "Activity", "setting": "[13]", "result": 1, "unit": "%"}, {"measurement": "Activity", "setting": "[14]", "result": 90, "unit": "%"}, {"measurement": "Activity", "setting": "[15]", "result": 98, "unit": "%"}, {"measurement": "Activity", "setting": "[16]", "result": 2, "unit": "%"}, {"measurement": "Activity", "setting": "[17]", "result": 96, "unit": "%"}, {"measurement": "Ratio", "setting": "[18]", "result": 1}, {"measurement": "Activity", "setting": "[19]", "result": 0, "unit": "%"}, {"measurement": "Activity", "setting": "[20]", "result": 99, "unit": "%"}, {"measurement": "Activity", "setting": "[21]", "result": 0, "unit": "%"}, {"measurement": "Activity", "setting": "[22]", "result": 1, "unit": "%"}, {"measurement": "Activity", "setting": "[23]", "result": 0, "unit": "%"}, {"measurement": "IC50", "setting": "[24]", "result": 1.58, "unit": "µM"}, {"measurement": "IC50", "setting": "[25]", "result": 16.9, "unit": "µM"}, {"measurement": "Activity", "setting": "[26]", "result": 95, "unit": "%"}, {"measurement": "Activity", "setting": "[27]", "result": 100, "unit": "%"}, {"measurement": "Activity", "setting": "[28]", "result": 1, "unit": "%"}, {"measurement": "Activity", "setting": "[29]", "result": 90, "unit": "%"}, {"measurement": "Activity", "setting": "[30]", "result": 1, "unit": "%"}, {"measurement": "Activity", "setting": "[31]", "result": 1, "unit": "%"}, {"measurement": "Ratio", "setting": "[32]", "result": 564}, {"measurement": "Activity", "setting": "[33]", "result": 97, "unit": "%"}, {"measurement": "Activity", "setting": "[34]", "result": 98, "unit": "%"}]}
